US6846640B2, “Time-resolved fluorescence assay for the detection of multimeric forms of A-beta 1-40” (Pharmacia & Upjohn Company, priority 2002, dated 2005)

Legend:
β amyloid = β amyloid (Homo sapiens, UniProt P05067); assay: β-amyloid aggregation ELISA protocol (Howlett et al.); format: biochemical; settings: Aβ incubated overnight, 6E10 antibody
Method: For the β-amyloid aggregation ELISA protocol (Howlett et al., supra), 96 uL diluted β amyloid solution (51 μg/ml) is added to a 96-well polystyrene plate in the presence of and absence of 2 μL of an aggregation inhibitor test compound diluted in DMSO. The Aβ is incubated overnight to allow for aggregation and an aliquot transferred to another 96-well polystyrene plate, precoated with anti-Aβ antibody (6E10, Senetek, Napa, Calif.) overnight, washed, and blocked with Dulbecco's PBS/1% BSA solution. […] The secondary, biotinylated antibody was bound with 200 μL Eu^3+-streptavidin (100 ng/ml) in DELFIA assay buffer, the excess washed off, and the plate developed in DELFIA enhancement solution and read on a TRF plate reader as outlined above.

β-amyloid 1-40 = target: T1, β-amyloid 1-40 (Homo sapiens, UniProt P05067); assay: TRF aggregation assay for β-amyloid polypeptide aggregation; format: biochemical; settings: 50 ug/ml β-amyloid, 24 uM test compound, 2% DMSO, 37° C. for 24 hrs
T1 construct: Beta-amyloid 1-40 (Aβ) and biotin-labeled β-amyloid 1-40 peptides were purchased from Biosource; purchased Biosource (Camarillo, Calif.)
T1 sequence (P05067 672-711 limits assumed): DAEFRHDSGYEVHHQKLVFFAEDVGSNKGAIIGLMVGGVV
Method: Beta-amyloid 1-40 (Aβ) and biotin-labeled β-amyloid 1-40 peptides were purchased from Biosource (Camarillo, Calif.). β-amyloid and biotinylated amyloid stock solutions, diluted in 0.1% acetic acid and corrected for 80% peptide content, were diluted to 83 μg/ml and 42 μg/ml, respectively, in reaction buffer (Dulbecco's PBS pH 7.4, 0.02% Tween 20). An equal mixture of the two β-amyloid products was then brought to a final concentration of 62.5 μg/ml total β-amyloid, giving a final 2:1 ratio of unbiotinylated to biotinylated Aβ polypeptide. When analyzing aggregation in the presence of test compound, 5 ul of diluted test compound (120 uM in 10% DMSO) was added to each well being analyzed in a 384-well polystyrene plate (Nunc). Test compounds are added over a range of concentrations. Twenty microliters of the β-amyloid reaction mixture was dispensed into each well of the 384 well plate, giving the final assay conditions as 24 uM test compound, 2% DMSO, and 50 ug/ml β-amyloid in a final volume of 25 uL. Plates were then sealed with foil sealers (Corning), and incubated at 37° C. for 24 hrs. […] Plates were washed with reaction buffer and 75 uL of DELFIA Enhancement solution (Wallac) was added to each well and the plates read on TRF capable plate reader (excitation at 337 run and emission at 620 nm).

Chain of β amyloid (P05067 672-711 limits assumed): as above

Molecule | inhibition of Aβ aggregation (β amyloid) [%] | prevents Aβ aggregation (β-amyloid 1-40) [%]
CO[C@H]1/C=C/O[C@@]2(C)Oc3c(C)c(O)c4c(O)c(c(/C=N/N5CCN(C)CC5)c(O)c4c3C2=O)NC(=O)/C(C)=C\C=C\[C@H](C)[C@H](O)[C@@H](C)[C@@H](O)[C@@H](C)[C@H](OC(C)=O)[C@@H]1C [rifampicin] | ~30 | 
QKLVFF [QKLVFF peptide] |  | 44
